# Patent publication US7138491B2, “Carboline-3-carboxylic acid modified related sequences of Ala-Arg-Pro-Ala-Lys, their synthesis and use as thromobolytic agent” (Guangzhou Bai Yun Shan Pharmaceutical Co., Ltd., priority 2003, dated 2006)
# Marks after values point to notes of the source that are not given here. Ends that are not written are not given here.
# Assays:
# fibrin plate = experiment: In vitro fibrinolytic lysis on fibrin plate (fibrinogen-agarose); assay type: biochemical, rabbit; conditions: dosage per well differs per compound (0.8-2.2 μg; UK 5 IU); n = 6; NS control 21.01 ± 9.26
# Experimental: The plates were prepared by mixing equal volumes of 0.3% rabbit fibrinogen and 0.95% agarose solutions, both dissolved in 50 mM of barbital buffer (pH 7.8, contained 1.66 mM of CaCl2, 0.68 mM of MgCl2 and 93.96 mM of NaCl)^[6]. The fibrinogen-agarose mixture was coagulated with […] thrombin (100 IU: ml) in the plastic dishes (its diameter is 90 mm and the depth of the fibrin plate is 1 mm). After 30 min at 4° C. an adequate number of wells, 5 mm in diameter, were perforated. To determine fibrinolytic activity […] aliquots of the tested pseudopeptides were added to each well, the plate was incubated, and areas of lysis were quantified as described for the regular fibrin plates.
# [1] = tested on: rabbit euglobulin fraction; experiment: In vitro euglobulin clot lysis time (ECLT); assay type: biochemical; conditions: dosage differs per compound (1.3-6.7 μg; UK 5 IU); 96 well microtiter plate; n = 6; NS control 200.01 ± 15.26
# Experimental: The rabbit euglobulin fraction was prepared according to the literature^[6]. Plasma diluted […] in distilled water was precipitated at pH 5.7 with acetic acid (0.25%). After 30 min at 4° C. the suspension was centrifuged at 2000 g for 15 min and the precipitate was resuspended to the initial plasma volume with 50 mM barbital buffer (pH 7.8, contained 1.66 mM of CaCl2, 0.68 mM of MgCl2 and 93.96 mM of NaCl). Euglobulin clot lysis time (ECLT) of the tested pseudopeptide was measured using a 96 well microtiter plate^[7] and the data are listed in Table 2.
# thrombus = experiment: In vivo thrombolytic activity, thrombus on steel helix in extracorporeal circulation; conditions: male Wistar rats; injected; dose differs per compound (3.1-8.2 mg/kg; UK 20000 IU); blood circulated 90 min; n = 10; NS control 12.31 ± 2.57
# Experimental: Male Wistar rats weighing 200–300 g (purchased from Animal Center of Peking University) were anesthetized with pentobarbital sodium (80.0 mg/kg, ip). The right carotid artery and left vein jugular of the animals were separated. To the glass tube filled with artery blood (1.0 ml) from the right carotid artery of the animal a stainless steel filament helix (15 circles; L, 15 mm; D, 1.0 mm) was put immediately. After 15 minutes the helix with thrombus was carefully taken out and weighted exactly, which was put into the middle polyethylene tube. The polyethylene tube was full with heparin sodium (50 IU/ml of NS) and one end was inserted into the left jugular vein. Heparin sodium was injected via the other end of the polyethylene tube as the anticoagulant, following which the tested pseudopeptide was injected. The blood was circulated through the polyethylene tube for 90 min, after which the helix was taken out and weighted accurately.
Substance,"Effect of the pseudopeptides on fibrin plate, areas of lysis, x ± SD (fibrin plate)","Euglobulin clot lysis time, x ± SD [1]","The reduction of thrombolytic mass, x ± SD (thrombus)"
"3S-(2-Arg-Pro-Ala-Lys)-1,2,3,4-tetrahydro-β-carboline-3-carboxylic acid (RPAK; not fully specified (C-terminus)) [compound 29]",126.55 ± 9.98^a mm^2,104.40 ± 27.51^a min,"24.40 ± 2.51^a,d mg"
"3S-1,2,3,4-tetrahydro-β-carboline-3-carboxyl-Lys-Arg-Pro-Ala-Lys-OH (KRPAK-OH; not fully specified (N-terminus); printed as 3S-1,2,3,4-tetrahydro-β-carboline-3-carboxyl-Lys-Arg-Pro-Ala-Lys-OH) [compound 13]",24.01 ± 10.05 mm^2,214.11 ± 32.67 min,14.11 ± 2.67 mg
"3S-(2-Asn-Arg-Pro-Ala-Lys)-1,2,3,4-tetrahydro-β-carboline-3-carboxylic acid (NRPAK; not fully specified (C-terminus)) [compound 25]",20.84 ± 10.77 mm^2,217.27 ± 30.57 min,17.27 ± 3.57^2) mg
H-Ala-Arg-Pro-OH [compound 9],23.16 ± 9.05 mm^2,203.81 ± 29.50 min,13.81 ± 2.50 mg
"3S-(2-Lys-Arg-Pro-Ala-Lys)-1,2,3,4-tetrahydro-β-carboline-3-carboxylic acid (KRPAK; not fully specified (C-terminus)) [compound 23]",19.87 ± 9.58 mm^2,213.98 ± 29.45 min,13.98 ± 2.45 mg
"3S-(2-Arg-Arg-Pro-Ala-Lys)-1,2,3,4-tetrahydro-β-carboline-3-carboxylic acid (RRPAK; not fully specified (C-terminus)) [compound 16]",24.19 ± 10.08 mm^2,204.11 ± 32.87 min,14.11 ± 2.87 mg
"3S-(2-Gly-Arg-Pro-Ala-Lys)-1,2,3,4-tetrahydro-β-carboline-3-carboxylic acid (GRPAK; not fully specified (C-terminus)) [compound 22]",125.90 ± 11.15^a mm^2,98.02 ± 25.21^a min,24.02 ± 5.21^1) mg
H-Asn-Arg-Pro-Ala-Lys-OH (H-NRPAK-OH) [compound 5],22.66 ± 9.46 mm^2,212.88 ± 29.66 min,12.88 ± 2.66 mg
"3S-1,2,3,4-tetrahydro-β-carboline-3-carboxyl-Ala-Arg-Pro-Ala-OH (ARPA-OH; not fully specified (N-terminus); printed as 3S-1,2,3,4-tetrahydro-β-carboline-3-carboxyl-Ala-Arg-Pro-Ala-OH) [compound 17]",23.44 ± 10.18 mm^2,213.55 ± 30.47 min,13.55 ± 2.47 mg
"3S-(2-Ala-Arg-Pro-Ala-Lys)-1,2,3,4-tetrahydro-β-carboline-3-carboxylic acid (ARPAK; not fully specified (C-terminus)) [compound 21]",119.70 ± 10.71^a mm^2,119.70 ± 23.71^a min,19.7 ± 3.71^2) mg
"3S-(2-Ala-Arg-Pro)-1,2,3,4-tetrahydro-β-carboline-3-carboxylic acid [compound 28]",21.21 ± 11.11 mm^2,213.23 ± 31.58 min,13.23 ± 2.58 mg
"3S-(2-Pro-Ala-Lys)-1,2,3,4-tetrahydro-β-carboline-3-carboxylic acid [compound 30]",139.39 ± 9.52^a mm^2,96.56 ± 30.42^a min,26.56 ± 2.42^b mg
H-Arg-Arg-Pro-Ala-Lys-OH (H-RRPAK-OH) [compound 6],33.77 ± 10.05 mm^2,213.31 ± 27.75 min,13.31 ± 2.75 mg
"3S-1,2,3,4-tetrahydro-β-carboline-3-carboxyl-Ala-Arg-Pro-OH [compound 18]",23.88 ± 10.04 mm^2,203.66 ± 30.44 min,13.66 ± 2.44 mg
H-Gly-Arg-Pro-Ala-Lys-OH (H-GRPAK-OH) [compound 2],125.90 ± 11.15^a mm^2,"89.90 ± 20.05^a,b min",25.90 ± 2.05^1) mg
H-Pro-Ala-Lys-OH [compound 8],138.06 ± 9.39^a mm^2,"80.68 ± 20.34^a,b min",23.68 ± 2.34^a mg
H-Gln-Arg-Pro-Ala-Lys-OH (H-QRPAK-OH) [compound 4],136.28 ± 10.62^a mm^2,"86.28 ± 20.46^a,b min",21.28 ± 3.46^1)2) mg
"H-ARPAK-OH [compound 1, H-Ala-Arg-Pro-Ala-Lys-OH]",119.12 ± 12.44^a mm^2,"90.12 ± 17.64^a,b min",18.84 ± 3.18^1)2) mg
H-Arg-Pro-Ala-Lys-OH (H-RPAK-OH) [compound 7],125.33 ± 10.10^a mm^2,"85.22 ± 20.40^a,b min",18.22 ± 2.40^a mg
"3S-1,2,3,4-tetrahydro-β-carboline-3-carboxyl-Arg-Pro-Ala-Lys-OH (RPAK-OH; not fully specified (N-terminus); printed as 3S-1,2,3,4-tetrahydro-β-carboline-3-carboxyl-Arg-Pro-Ala-Lys-OH) [compound 19]",20.33 ± 9.28 mm^2,213.56 ± 29.95 min,13.56 ± 2.45 mg
H-Lys-Arg-Pro-Ala-Lys-OH (H-KRPAK-OH) [compound 3],38.99 ± 9.06 mm^2,221.28 ± 23.46 min,21.28 ± 3.46^1)2) mg
"3S-(2-Gln-Arg-Pro-Ala-Lys)-1,2,3,4-tetrahydro-β-carboline-3-carboxylic acid (QRPAK; not fully specified (C-terminus)) [compound 24]",133.89 ± 9.99^a mm^2,96.88 ± 29.21^1a min,22.88 ± 9.21^1) mg
